In US8334299B2, “β-carboline for the treatment of neurodegenerative diseases” (Ellneuroxx, Ltd., priority 2007, dated 2012):

How the values were obtained:
[1] = system: dopamine concentration in the striatum; assay: Chronic MPP+ infusion model of Parkinson's disease, dopamine concentration in the striatum; format: in vivo, rat; set-up: key to Anti-Parkinson test in comparison to 9-methyl-β-carboline: +: slightly better than 9-methyl-β-carboline; ±: the same as 9-methyl-β-carboline; −: slightly worse than 9-methyl-β-carboline; conditions: tested as described in example 8
Excerpt: In the diagram the dopamine (DA) levels of the left and right striatum of the single rats are indicated.
To investigate Parkinson's disease acute in vivo models are used for years although chronic models would be a better model for the disease. Another disadvantage of the acute models is that ca. 40% of the animals die from the application of the neurotoxin. Therefore, we have chosen a chronic model in which comparably very low doses of neurotoxin 1-methyl-4-phenylpyridinium (MPP^+) were infused for 28 days into the left lateral ventricle of the rat brain. The substance was continuously applied through osmotic minipumps. Thereby, casualties were completely avoided. After four weeks, either solvent or equimolar amounts of the sample substance, namely neuroprotective betacarboline, resp. 9-alkyl-betacarboline was infused for two weeks via the same catheter. In a preliminary study for dose-finding the MPP^+ dose which leads to a reduction by 40% of the dopamine concentration in the striatum was determined. The dopamine concentration in the striatum is a characteristic marker for Parkinson's disease in which a degeneration of dopaminergic neurons occurs.
The compounds A to L were tested as described in example 8. The test results of the compounds A to L are indicated in the following table in comparison to 9-methyl-β-carboline.

[2] = system: dopaminergic neurons in the anterior putamen; conditions: patients suffering from Parkinson's disease, infusion; cited from earlier work

| Molecule | Anti-Parkinson test in comparison to 9-methyl-β-carboline [1] | cellular extensions of dopaminergic neurons in the anterior putamen [2] | clinical symptoms [2] |
| --- | --- | --- | --- |
| CCCn1c2ccccc2c2ccncc21 [Compound A] | + |  |  |
| CC(C)C(C)Cn1c2ccccc2c2ccncc21 (centres unmarked) [Compound K] | ± |  |  |
| CN(C)CCn1c2ccccc2c2ccncc21 [Compound L] | + |  |  |
| CC(C)Cn1c2ccccc2c2ccncc21 [Compound E] | + |  |  |
| C#CCn1c2ccccc2c2ccncc21 [Compound H] | + |  |  |
| COC(=O)CCn1c2ccccc2c2ccncc21 [Compound J] | ± |  |  |
| CCn1c2ccccc2c2ccncc21 [Compound F] | ± |  |  |
| C=CCn1c2ccccc2c2ccncc21 [Compound D] | + |  |  |
| CCCCCCn1c2ccccc2c2ccncc21 [Compound B] | ± |  |  |
| COCCn1c2ccccc2c2ccncc21 [Compound G] | ± |  |  |
| c1ccc(Cn2c3ccccc3c3ccncc32)cc1 [Compound I] | − |  |  |
| CCCCCCCCCCCCCCn1c2ccccc2c2ccncc21 [Compound C] | ± |  |  |
| GDNF: the protein glial cell line-derived neurotrophic factor, infused in Parkinson patients (Love et al.) (protein, UniProt P39905 78-211, looked up) Glial cell line-derived …: SPDKQMAVLPRRERNRQAAAANPENSRGKGRRGQRGKNRGCVLTAIHLNVTDLGLGYETKEELIFRYCSGSCDAAETTYDKILKNLSRNRRLVSDKVGQACCRPIAFDDDLSFLDDNLVYHILRKHSAKRCGCI |  | growth of cellular extensions | improvement in clinical symptoms |
